Experimental data reported in patent US20230115298A1, “METHOD FOR CONTROLLING THE GROWTH OF UNDESIRABLE VEGETATION” (UPL Limited, priority 2021, published 2023).

System: weedy Glycine max
Experiment: Greenhouse trials, post-emergence herbicidal efficacy of L-glufosinate, other herbicides and their combinations (observed vs Colby expected)
Type: in vivo
Conditions: for Control %: Table 1
Description: Greenhouse trials were carried out to evaluate the efficacy of the combination of L-glufosinate and the other herbicides on weedy Glycine max. The soil used was sandy clay loam—Sand: 68.0%; Silt: 8.0%; Clay: 24.0%. All treatments were in 3 replications per treatment with a spray volume of […].
The expected efficacy of a combination of L-glufosinate and the other herbicides was calculated using the well-established Colby method. Any difference between the observed and “expected” efficacy could be attributed to synergy between the two compounds.
In the Colby method, the expected (or predicted) response of a combination of herbicides is calculated by taking the product of the observed response for each individual component of the combination when applied alone, divided by 100, and subtracting this value from the sum of the observed response for each component when applied alone. An unexpected enhancement in efficacy of the combination is then determined by comparing the observed response of the combination to the expected (or predicted) response as calculated from the observed response of each individual component alone. If the observed response of the combination is greater than the expected (or predicted) response, or stated conversely, if the difference between the observed and expected response is greater than zero, then the combination is said to be synergistic or unexpectedly effective (Colby, S. R., Weeds, 1967(15), p. 20-22). The Colby method requires only a single dose of each herbicide applied alone and the mixture of both doses. The formula used to calculate the expected efficacy (EE) which was compared with the observed efficacy (OE) to determine the efficacy of the present invention is explained hereinbelow:
The expected efficacy for a combination of two active ingredients is as follows:
The expected efficacy for a combination of three active ingredients is as follows:
[…] The target weed was weedy Glycine max, and the concentration of the herbicide and the results are recorded in the table 1 below:

[1] = 14 DAA, dose a.i. g/h: L-glufosinate 150, oxyfluorfen 107.1, imazethapyr 75, carfentrazone 7.5
[2] = 21 DAA, dose a.i. g/h: L-glufosinate 150, oxyfluorfen 107.1, imazethapyr 75, carfentrazone 7.5
[3] = 28 DAA, dose a.i. g/h: L-glufosinate 150, oxyfluorfen 107.1, imazethapyr 75, carfentrazone 7.5
[4] = 35 DAA, dose a.i. g/h: L-glufosinate 150, oxyfluorfen 107.1, imazethapyr 75, carfentrazone 7.5

O=C(O)COc1ccc(Cl)cc1Cl [2,4-D]
% control (Table 4, 7 DAA, g ai/h: L-glufosinate 150, 2,4-D 204): 41.7% | % control (Table 4, 14 DAA, g ai/h: L-glufosinate 150, 2,4-D 204): 42.7% | % control (Table 4, 21 DAA, g ai/h: L-glufosinate 150, 2,4-D 204): 50.7% | % control (Table 4, 28 DAA, g ai/h: L-glufosinate 150, 2,4-D 204): 53.3% | % control (Table 4, 35 DAA, g ai/h: L-glufosinate 150, 2,4-D 204): 48.3%

Cc1nn(-c2cc(CC(Cl)C(=O)O)c(Cl)cc2F)c(=O)n1C(F)F (stereo not shown) [Carfentrazone, carfentrazone]
Control % [1]: 50.3% | Control % (14 DAA, dose a.i. g/h: carfentrazone 9.0, L-glufosinate 150): 51.7% | Control % [2]: 44.3% | Control % (21 DAA, dose a.i. g/h: carfentrazone 9.0, L-glufosinate 150): 51.0% | Control % [3]: 44.3% | Control % (28 DAA, dose a.i. g/h: carfentrazone 9.0, L-glufosinate 150): 51.0% | Control % [4]: 39.3% | Control % (35 DAA, dose a.i. g/h: carfentrazone 9.0, L-glufosinate 150): 46.7%

CCSC(C)CC1CC(=O)C(/C(CC)=N/OC/C=C/Cl)=C(O)C1 (stereo not shown) [Clethodim, clethodim]
% control (Table 6, 3 DAA, g ai/h: L-glufosinate 150, clethodim 45): 0% | % control (Table 6, 7 DAA, g ai/h: L-glufosinate 150, clethodim 45): 0% | % control (Table 6, 14 DAA, g ai/h: L-glufosinate 150, clethodim 45): 0% | % control (Table 6, 21 DAA, g ai/h: L-glufosinate 150, clethodim 45): 0% | % control (Table 6, 28 DAA, g ai/h: L-glufosinate 150, clethodim 45): 0% | % control (Table 6, 35 DAA, g ai/h: L-glufosinate 150, clethodim 45): 0%

C#CCN1C(=O)COc2cc(F)c(N3C(=O)C4=C(CCCC4)C3=O)cc21 [Flumioxazin, flumioxazin]
% control (Table 3, 3 DAA, g ai/h: L-glufosinate 150, flumioxazin 30): 7.7% | % control (Table 3, 7 DAA, g ai/h: L-glufosinate 150, flumioxazin 30): 31.7% | % control (Table 3, 21 DAA, g ai/h: L-glufosinate 150, flumioxazin 30): 40% | % control (Table 3, 28 DAA, g ai/h: L-glufosinate 150, flumioxazin 30): 40% | % control (Table 3, 35 DAA, g ai/h: L-glufosinate 150, flumioxazin 30): 30%

O=C(O)CNCP(=O)(O)O [Glyphosate, glyphosate]
% control (Table 2, 3 DAA, g ai/h: L-glufosinate 150, glyphosate 379): 0% | % control (Table 2, 7 DAA, g ai/h: L-glufosinate 150, glyphosate 379): 0% | % control (Table 2, 14 DAA, g ai/h: L-glufosinate 150, glyphosate 379): 0% | % control (Table 2, 21 DAA, g ai/h: L-glufosinate 150, glyphosate 379): 0% | % control (Table 2, 28 DAA, g ai/h: L-glufosinate 150, glyphosate 379): 0% | % control (Table 2, 35 DAA, g ai/h: L-glufosinate 150, glyphosate 379): 0%

CC(Oc1ccc(Oc2ncc(C(F)(F)F)cc2Cl)cc1)C(=O)O (stereo not shown) [Haloxyfop, haloxyfop]
% control (Table 7, 3 DAA, g ai/h: L-glufosinate 150, haloxyfop 50): 5% | % control (Table 7, 7 DAA, g ai/h: L-glufosinate 150, haloxyfop 50): 13.3% | % control (Table 7, 14 DAA, g ai/h: L-glufosinate 150, haloxyfop 50): 15% | % control (Table 7, 21 DAA, g ai/h: L-glufosinate 150, haloxyfop 50): 12.3% | % control (Table 7, 28 DAA, g ai/h: L-glufosinate 150, haloxyfop 50): 12.3% | % control (Table 7, 35 DAA, g ai/h: L-glufosinate 150, haloxyfop 50): 12.3%

CCc1cnc(C2=NC(C)(C(C)C)C(=O)N2)c(C(=O)O)c1 (stereo not shown) [Imazethapyr, imazethapyr]
Control % [1]: 10% | Control % [2]: 20.0% | Control % [3]: 20.0% | Control % [4]: 15.0%

CCOc1cc(Oc2ccc(C(F)(F)F)cc2Cl)ccc1[N+](=O)[O-] [Oxyfluorfen, oxyfluorfen]
Control % [1]: 46.7% | Control % [2]: 45.0% | Control % [3]: 43.3% | Control % [4]: 35.0%

O=C(O)COc1nc(Cl)c(Cl)cc1Cl [Triclopyr, triclopyr]
% control (Table 5, 7 DAA, g ai/h: L-glufosinate 150, triclopyr 288): 50% | % control (Table 5, 14 DAA, g ai/h: L-glufosinate 150, triclopyr 288): 79.3%
